Drawing on paper PMC9123294, “Role of LL-37 in thrombotic complications in patients with COVID-19” (Cellular and Molecular Life Sciences: CMLS, 2022), this text covers Kd for 2 molecules.

For assay [1], the target named is Human alpha thrombin (Homo sapiens, UniProt P00734). As to the kind of experiment: biochemical. On the procedure:
SPR analysis was performed as described previously, with some modifications. Briefly, thrombin and FXa were immobilized on the activated sensor chip CM-5 by amine coupling. […] The equilibrium dissociation constant (KD) was calculated using the Langmuir model with Biacore evaluation software provided by the manufacturer.

The target of assay [2] is T1, Human factor Xa (human, UniProt P00742 41-179; P00742 235-488).
T1 construct: also called FXa; source: bought: Enzyme Research Laboratories (HFXa 1011)
As to the kind of experiment: SPR; thrombin and FXa immobilised on a CM-5 sensor chip by amine coupling; LL-37 or Cramp flowed in HBS-EP+ running buffer at 30 ul/min; BIAcore 3000; KD from the Langmuir model. As to conditions: both partners purified. (In general: In SPR one partner is held on a chip, and binding of the other changes the refractive index at the surface.)

T1 sequence (P00742 41-179, chain 1 of 2): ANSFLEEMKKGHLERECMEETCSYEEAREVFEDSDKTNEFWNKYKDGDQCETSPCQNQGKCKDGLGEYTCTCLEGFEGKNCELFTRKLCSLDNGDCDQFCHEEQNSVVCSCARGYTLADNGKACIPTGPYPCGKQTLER
T1 sequence (P00742 235-488, chain 2 of 2): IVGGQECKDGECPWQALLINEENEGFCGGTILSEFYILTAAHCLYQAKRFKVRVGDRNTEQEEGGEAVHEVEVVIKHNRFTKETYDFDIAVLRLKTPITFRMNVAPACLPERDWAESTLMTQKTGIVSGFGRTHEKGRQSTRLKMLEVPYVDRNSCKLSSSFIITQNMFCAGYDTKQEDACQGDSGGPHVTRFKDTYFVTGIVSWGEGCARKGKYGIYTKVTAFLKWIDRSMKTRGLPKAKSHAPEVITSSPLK

For `CC[C@H](C)[C@H](NC(=O)[C@H](CCCCN)NC(=O)[C@H](CCC(=O)O)NC(=O)[C@H](CCCCN)NC(=O)[C@H](CO)NC(=O)[C@H](CCCCN)NC(=O)[C@H](CCCNC(=N)N)NC(=O)[C@H](Cc1ccccc1)NC(=O)[C@H](Cc1ccccc1)NC(=O)[C@H](CC(=O)O)NC(=O)CNC(=O)[C@H](CC(C)C)NC(=O)[C@@H](N)CC(C)C)C(=O)NCC(=O)N[C@@H](CCCCN)C(=O)N[C@@H](CCC(=O)O)C(=O)N[C@@H](Cc1ccccc1)C(=O)N[C@@H](CCCCN)C(=O)N[C@@H](CCCNC(=N)N)C(=O)N[C@H](C(=O)N[C@H](C(=O)N[C@@H](CCC(N)=O)C(=O)N[C@@H](CCCNC(=N)N)C(=O)N[C@H](C(=O)N[C@@H](CCCCN)C(=O)N[C@@H](CC(=O)O)C(=O)N[C@@H](Cc1ccccc1)C(=O)N[C@@H](CC(C)C)C(=O)N[C@@H](CCCNC(=N)N)C(=O)N[C@@H](CC(N)=O)C(=O)N[C@@H](CC(C)C)C(=O)N[C@H](C(=O)N1CCC[C@H]1C(=O)N[C@@H](CCCNC(=N)N)C(=O)N[C@H](C(=O)N[C@@H](CCC(=O)O)C(=O)N[C@@H](CO)C(=O)O)[C@@H](C)O)C(C)C)[C@@H](C)CC)C(C)C)[C@@H](C)CC` [LL-37], binding in assay [1] was characterised by a dissociation constant (Kd) of 2640 nM.

B1: Cramp (peptide)
peptide: GLLRKGGEKIGEKLKKIGQKIKNFFQKLVPQPE
notes: also called LL-37 homolog from Mus musculus; cathelicidin peptide; source: synthetic peptide (GL Biochem, Shanghai; purity > 98%)
In assay [2], B1 showed a Kd of 317 µM.

In general, Kd refers to the concentration at which binding is half-saturated. A high value points to lower affinity.
